Results as given in ChEMBL document CHEMBL4665624, “Synthesis of 5-(4-(1H-phenanthro[9,10-d]imidazol-2-yl)benzylidene)thiazolidine-2,4-dione as promising DNA and serum albumin-binding agents and evaluation of antitumor activity” (Eur J Med Chem, 2019).

What was measured:
[1] = tested on: NCI-H226; assay: Antitumor activity against human NCI-H226 assessed as cell growth inhibition at 10 uM incubated for 48 hrs by sulforhodamine B assay; type: functional; settings: read-out: GI
[2] = tested on: RPMI-8226; assay: Antitumor activity against human RPMI8226 cells assessed as cell growth inhibition at 10 uM incubated for 48 hrs by sulforhodamine B assay; type: functional; settings: read-out: GI
[3] = tested on: SN12C; assay: Antitumor activity against human SN12C cells assessed as cell growth inhibition at 10 uM incubated for 48 hrs by sulforhodamine B assay; type: functional; settings: read-out: GI
[4] = tested on: SF-268; assay: Antitumor activity against human SF268 cells assessed as cell growth inhibition at 10 uM incubated for 48 hrs by sulforhodamine B assay; type: functional; settings: read-out: GI
[5] = tested on: HCT-15; assay: Antitumor activity against human HCT15 cells assessed as cell growth inhibition at 10 uM incubated for 48 hrs by sulforhodamine B assay; type: functional; settings: read-out: GI
[6] = tested on: EKVX; assay: Antitumor activity against human EKVX cells assessed as cell growth inhibition at 10 uM incubated for 48 hrs by sulforhodamine B assay; type: functional; settings: read-out: GI
[7] = tested on: SK-OV-3; assay: Antitumor activity against human SK-OV-3 cells assessed as cell growth inhibition at 10 uM incubated for 48 hrs by sulforhodamine B assay; type: functional; settings: read-out: GI
[8] = tested on: MDA-MB-435; assay: Antitumor activity against human MDA-MB-435 cells assessed as cell growth inhibition at 10 uM incubated for 48 hrs by sulforhodamine B assay; type: functional; settings: read-out: GI
[9] = tested on: ACHN; assay: Antitumor activity against human ACHN cells assessed as cell growth inhibition at 10 uM incubated for 48 hrs by sulforhodamine B assay; type: functional; settings: read-out: GI
[10] = tested on: K562; assay: Antitumor activity against human K562 cells assessed as cell growth inhibition at 10 uM incubated for 48 hrs by sulforhodamine B assay; type: functional; settings: read-out: GI
[11] = tested on: MDA-MB-231; assay: Antitumor activity against human MDA-MB-231/ATCC cells assessed as cell growth inhibition at 10 uM incubated for 48 hrs by sulforhodamine B assay; type: functional; settings: read-out: GI
[12] = tested on: OVCAR-4; assay: Antitumor activity against human OVCAR-4 cells assessed as cell growth inhibition at 10 uM incubated for 48 hrs by sulforhodamine B assay; type: functional; settings: read-out: GI
[13] = tested on: SK-MEL-28; assay: Antitumor activity against human SK-MEL-28 cells assessed as cell growth inhibition at 10 uM incubated for 48 hrs by sulforhodamine B assay; type: functional; settings: read-out: GI
[14] = tested on: UO-31; assay: Antitumor activity against human UO-31 cells assessed as cell growth inhibition at 10 uM incubated for 48 hrs by sulforhodamine B assay; type: functional; settings: read-out: GI
[15] = tested on: UACC-62; assay: Antitumor activity against human UACC-62 cells assessed as cell growth inhibition at 10 uM incubated for 48 hrs by sulforhodamine B assay; type: functional; settings: read-out: GI
[16] = tested on: LOX IMVI; assay: Antitumor activity against human LOX IMVI cells assessed as cell growth inhibition at 10 uM incubated for 48 hrs by sulforhodamine B assay; type: functional; settings: read-out: GI
[17] = tested on: A498; assay: Antitumor activity against human A498 cells assessed as cell growth inhibition at 10 uM incubated for 48 hrs by sulforhodamine B assay; type: functional; settings: read-out: GI
[18] = tested on: HOP-92; assay: Antitumor activity against human HOP92 cells assessed as cell growth inhibition at 10 uM incubated for 48 hrs by sulforhodamine B assay; type: functional; settings: read-out: GI
[19] = tested on: NCI-H522; assay: Antitumor activity against human NCI-H522 cells assessed as cell growth inhibition at 10 uM incubated for 48 hrs by sulforhodamine B assay; type: functional; settings: read-out: GI
[20] = tested on: BT-549; assay: Antitumor activity against human BT-549 cells assessed as cell growth inhibition at 10 uM incubated for 48 hrs by sulforhodamine B assay; type: functional; settings: read-out: GI
[21] = tested on: SNB-75; assay: Antitumor activity against human SNB-75 cells assessed as cell growth inhibition at 10 uM incubated for 48 hrs by sulforhodamine B assay; type: functional; settings: read-out: GI
[22] = tested on: CCRF-CEM; assay: Antitumor activity against human CCRF-CEM cells assessed as cell growth inhibition at 10 uM incubated for 48 hrs by sulforhodamine B assay; type: functional; settings: read-out: GI
[23] = tested on: OVCAR-3; assay: Antitumor activity against human OVCAR-3 cells assessed as cell growth inhibition at 10 uM incubated for 48 hrs by sulforhodamine B assay; type: functional; settings: read-out: GI
[24] = tested on: NCI-H23; assay: Antitumor activity against human NCI-H23 cells assessed as cell growth inhibition at 10 uM incubated for 48 hrs by sulforhodamine B assay; type: functional; settings: read-out: GI
[25] = tested on: RXF 393; assay: Antitumor activity against human RXF 393 cells assessed as cell growth inhibition at 10 uM incubated for 48 hrs by sulforhodamine B assay; type: functional; settings: read-out: GI
[26] = tested on: PC-3; assay: Antitumor activity against human PC-3 cells assessed as cell growth inhibition at 10 uM incubated for 48 hrs by sulforhodamine B assay; type: functional; settings: read-out: GI
[27] = tested on: SF-295; assay: Antitumor activity against human SF295 cells assessed as cell growth inhibition at 10 uM incubated for 48 hrs by sulforhodamine B assay; type: functional; settings: read-out: GI
[28] = tested on: SW-620; assay: Antitumor activity against human SW620 cells assessed as cell growth inhibition at 10 uM incubated for 48 hrs by sulforhodamine B assay; settings: SW-620, 48 h, read-out: GI
[29] = tested on: Hs-578T; assay: Antitumor activity against human HS 578T cells assessed as cell growth inhibition at 10 uM incubated for 48 hrs by sulforhodamine B assay; type: functional; settings: read-out: GI
[30] = tested on: COLO 205; assay: Antitumor activity against human COLO205 cells assessed as cell growth inhibition at 10 uM incubated for 48 hrs by sulforhodamine B assay; type: functional; settings: read-out: GI
[31] = tested on: HCT-116; assay: Antitumor activity against human HCT116 cells assessed as cell growth inhibition at 10 uM incubated for 48 hrs by sulforhodamine B assay; type: functional; settings: read-out: GI
[32] = tested on: IGROV-1; assay: Antitumor activity against human IGROV1 cells assessed as cell growth inhibition at 10 uM incubated for 48 hrs by sulforhodamine B assay; type: functional; settings: read-out: GI
[33] = tested on: MCF7; assay: Antitumor activity against human MCF7 cells assessed as cell growth inhibition at 10 uM incubated for 48 hrs by sulforhodamine B assay; type: functional; settings: read-out: GI
[34] = tested on: KM12; assay: Antitumor activity against human KM12 cells assessed as cell growth inhibition at 10 uM incubated for 48 hrs by sulforhodamine B assay; type: functional; settings: read-out: GI
[35] = tested on: Malme-3M; assay: Antitumor activity against human MALME-3M cells assessed as cell growth inhibition at 10 uM incubated for 48 hrs by sulforhodamine B assay; type: functional; settings: read-out: GI
[36] = tested on: M14; assay: Antitumor activity against human M14 cells assessed as cell growth inhibition at 10 uM incubated for 48 hrs by sulforhodamine B assay; type: functional; settings: read-out: GI
[37] = tested on: HCC 2998; assay: Antitumor activity against human HCC2998 cells assessed as cell growth inhibition at 10 uM incubated for 48 hrs by sulforhodamine B assay; type: functional; settings: read-out: GI
[38] = tested on: OVCAR-8; assay: Antitumor activity against human OVCAR-8 cells assessed as cell growth inhibition at 10 uM incubated for 48 hrs by sulforhodamine B assay; type: functional; settings: read-out: GI
[39] = tested on: SR; assay: Antitumor activity against human SR cells assessed as cell growth inhibition at 10 uM incubated for 48 hrs by sulforhodamine B assay; type: functional; settings: read-out: GI
[40] = tested on: NCI-H460; assay: Antitumor activity against human NCI-H460 assessed as cell growth inhibition at 10 uM incubated for 48 hrs by sulforhodamine B assay; type: functional; settings: read-out: GI
[41] = tested on: HT-29; assay: Antitumor activity against human HT-29 cells assessed as cell growth inhibition at 10 uM incubated for 48 hrs by sulforhodamine B assay; type: functional; settings: read-out: GI
[42] = tested on: SNB-19; assay: Antitumor activity against human SNB-19 cells assessed as cell growth inhibition at 10 uM incubated for 48 hrs by sulforhodamine B assay; type: functional; settings: read-out: GI
[43] = tested on: 786-0; assay: Antitumor activity against human 786-0 cells assessed as cell growth inhibition at 10 uM incubated for 48 hrs by sulforhodamine B assay; type: functional; settings: read-out: GI
[44] = tested on: U-251; assay: Antitumor activity against human U251 cells assessed as cell growth inhibition at 10 uM incubated for 48 hrs by sulforhodamine B assay; type: functional; settings: read-out: GI
[45] = tested on: MDA-MB-468; assay: Antitumor activity against human MDA-MB-468 cells assessed as cell growth inhibition at 10 uM incubated for 48 hrs by sulforhodamine B assay; type: functional; settings: read-out: GI
[46] = tested on: HL-60(TB); assay: Antitumor activity against human HL-60(TB) cells assessed as cell growth inhibition at 10 uM incubated for 48 hrs by sulforhodamine B assay; type: functional; settings: read-out: GI
[47] = tested on: MOLT-4; assay: Antitumor activity against human MOLT4 cells assessed as cell growth inhibition at 10 uM incubated for 48 hrs by sulforhodamine B assay; type: functional; settings: read-out: GI
[48] = tested on: NCI/ADR-RES; assay: Antitumor activity against human NCI/ADR-RES cells assessed as cell growth inhibition at 10 uM incubated for 48 hrs by sulforhodamine B assay; type: functional; settings: read-out: GI

SMILES: Oc1ccccc1-c1nc2c3ccccc3c3ccccc3c2[nH]1
- inhibition of growth at 10 µM [1]: 11.6%
- inhibition of growth at 10 µM [2]: 13.3%
- inhibition of growth at 10 µM [3]: 24.4%
- inhibition of growth at 10 µM [4]: < 10%
- inhibition of growth at 10 µM [5]: < 10%
- inhibition of growth at 10 µM [6]: 19.4%
- inhibition of growth at 10 µM [7]: < 10%
- inhibition of growth at 10 µM [8]: < 10%
- inhibition of growth at 10 µM [9]: 11.7%
- inhibition of growth at 10 µM [10]: 12.1%
- inhibition of growth at 10 µM [11]: 23.8%
- inhibition of growth at 10 µM [12]: < 10%
- inhibition of growth at 10 µM [13]: < 10%
- inhibition of growth at 10 µM [14]: 37.9%
- inhibition of growth at 10 µM [15]: 10.1%
- inhibition of growth at 10 µM [16]: < 10%
- inhibition of growth at 10 µM [17]: < 10%
- inhibition of growth at 10 µM [18]: 16.4%
- inhibition of growth at 10 µM [19]: < 10%
- inhibition of growth at 10 µM [20]: < 10%
- inhibition of growth at 10 µM [21]: 11.1%
- inhibition of growth at 10 µM [22]: < 10%
- inhibition of growth at 10 µM [23]: < 10%
- inhibition of growth at 10 µM [24]: 10.7%
- inhibition of growth at 10 µM [25]: < 10%
- inhibition of growth at 10 µM [26]: 11.8%
- inhibition of growth at 10 µM [27]: < 10%
- inhibition of growth at 10 µM [28]: < 10%
- inhibition of growth at 10 µM [29]: < 10%
- inhibition of growth at 10 µM [30]: < 10%
- inhibition of growth at 10 µM [31]: 12.3%
- inhibition of growth at 10 µM [32]: 23.5%
- inhibition of growth at 10 µM [33]: 26.3%
- inhibition of growth at 10 µM [34]: < 10%
- inhibition of growth at 10 µM [35]: < 10%
- inhibition of growth at 10 µM [36]: < 10%
- inhibition of growth at 10 µM [37]: < 10%
- inhibition of growth at 10 µM [38]: < 10%
- inhibition of growth at 10 µM [39]: 10.8%
- inhibition of growth at 10 µM [40]: < 10%
- inhibition of growth at 10 µM [41]: < 10%
- inhibition of growth at 10 µM [42]: < 10%
- inhibition of growth at 10 µM [43]: < 10%
- inhibition of growth at 10 µM [44]: < 10%
- inhibition of growth at 10 µM [45]: < 10%
- inhibition of growth at 10 µM [46]: < 10%
- inhibition of growth at 10 µM [47]: < 10%
- inhibition of growth at 10 µM [48]: < 10%
